Reference: patent US20240116985A1, “STAPLED PEPTIDES AND METHODS THEREOF” (priority 2020, published 2024)

What follows are compounds tested against T1, full-length beta-Catenin (Uniprot ID P35222) (Homo sapiens, UniProt P35222) (assay: Fluorescence polarization IC50 (beta-catenin / 5FAM-TCF4 10-53 competition)). Conditions: fluorescence polarization; read-out: beta-Catenin FP IC50.
T1 construct: 10 nM full-length beta-Catenin (Uniprot ID P35222)
T1 sequence (P35222 1-781): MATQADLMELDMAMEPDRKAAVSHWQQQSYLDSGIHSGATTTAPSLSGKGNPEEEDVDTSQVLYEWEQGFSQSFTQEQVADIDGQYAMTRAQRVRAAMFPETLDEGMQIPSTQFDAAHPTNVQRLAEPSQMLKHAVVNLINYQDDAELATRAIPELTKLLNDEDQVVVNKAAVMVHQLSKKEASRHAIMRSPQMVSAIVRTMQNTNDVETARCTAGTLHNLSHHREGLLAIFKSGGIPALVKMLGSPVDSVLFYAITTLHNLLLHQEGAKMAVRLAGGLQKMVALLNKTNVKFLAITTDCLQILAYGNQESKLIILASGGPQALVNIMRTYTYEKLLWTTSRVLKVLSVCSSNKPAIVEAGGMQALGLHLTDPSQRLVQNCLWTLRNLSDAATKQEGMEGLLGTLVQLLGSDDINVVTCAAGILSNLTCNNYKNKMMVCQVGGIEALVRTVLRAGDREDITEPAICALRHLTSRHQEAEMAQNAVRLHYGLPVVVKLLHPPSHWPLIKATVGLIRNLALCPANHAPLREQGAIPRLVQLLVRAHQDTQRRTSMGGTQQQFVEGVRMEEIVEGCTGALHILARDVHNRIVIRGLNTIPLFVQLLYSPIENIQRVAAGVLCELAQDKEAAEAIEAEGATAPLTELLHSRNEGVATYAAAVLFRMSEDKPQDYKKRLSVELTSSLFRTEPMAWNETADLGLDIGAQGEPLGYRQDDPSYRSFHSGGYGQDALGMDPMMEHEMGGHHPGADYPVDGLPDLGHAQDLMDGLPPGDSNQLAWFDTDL
Assay type: binding

| Structure (SMILES) | IC50 |
| --- | --- |
| CC(C)C[C@H](NC(=O)[C@]12CCN(C1)C(=O)OCCCCCCCCC1(CCCCCCCC(=O)N3CCC[C@@]3(C)C(=O)N[C@@H](CC(=O)O)C(=O)N1)C(=O)N[C@@H](C)C(=O)N[C@@H](CC(=O)O)C(=O)N[C@@H](CC(=O)O)C(=O)N[C@@H](C)C(=O)N[C@@H](C)C(=O)N[C@@H](Cc1ccccc1)C(=O)N2)C(=O)N[C@@H](Cc1ccsc1)C(=O)N[C@@H](Cc1csc2ccccc12)C(=O)N[C@@H](CCC(N)=O)C(N)=O (stereo partly drawn) [I-2601, 4pentenyl-MePro-Asp-B5-Ala-Asp-Asp-Ala-Ala-Phe-PyrS2-Leu-3Thi-BztA-Gln-NH2] | 0.592 µM |
| CC(=O)N1CCC[C@]12CC=CCCCC1(CCCC=CCCCOC(=O)N3CC[C@@](C(=O)N[C@@H](Cc4ccsc4)C(=O)N[C@@H](Cc4csc5ccccc45)C(=O)N[C@@H](CCC(N)=O)C(N)=O)(C3)NC(=O)[C@H](CC(N)=O)NC(=O)[C@H](Cc3ccc(O)cc3)NC(=O)[C@H](C)NC(=O)[C@H](C)NC(=O)[C@H]([C@@H](C)O)NC(=O)[C@H](CC(N)=O)NC1=O)NC(=O)[C@H](CC(C)(C)C)NC(=O)[C@H](CC(=O)O)NC2=O (stereo partly drawn) [I-2015, Ac-PL3-Asp-Npg-B5-Asn-Thr-Ala-Ala-Tyr-Asn-PyrS2-3Thi-BztA-Gln-NH2] | 0.522 µM |
| CC(=O)N1CCC[C@]12CC=CCCCC1(CCCC=CCCCOC(=O)N3CC(C(=O)N[C@@H](Cc4ccccc4C(F)(F)F)C(=O)N[C@@H](Cc4csc5ccccc45)C(=O)N[C@@H](CCC(N)=O)C(N)=O)(C3)NC(=O)[C@H](CC(C)C)NC(=O)[C@H](Cc3ccccc3)NC(=O)[C@H](C)NC(=O)C(C)(C)NC(=O)[C@H](Cc3cccc(C(=O)O)c3)NC(=O)[C@H](CC(=O)O)NC1=O)NC(=O)[C@H](CC(C)(C)C)NC(=O)[C@H](CC(=O)O)NC2=O (stereo partly drawn) [I-2614, Ac-PL3-Asp-Npg-B5-Asp-3COOHF-Aib-Ala-Phe-Leu-Az2-2F3MeF-BztA-Gln-NH2] | 0.097 µM |
| COC(=O)N1CCC[C@]12CC=CCCCC1(CCCC=CCCCOC(=O)N3CC[C@@](C(=O)N[C@@H](Cc4ccccc4Cl)C(=O)N[C@@H](Cc4csc5ccccc45)C(=O)N[C@@H](C)C(N)=O)(C3)NC(=O)[C@H](CC(C)C)NC(=O)[C@H](Cc3ccccc3)NC(=O)[C@H](C)NC(=O)[C@H](C)NC(=O)[C@H](Cc3cccc(C(=O)O)c3)NC(=O)[C@H](CC(=O)O)NC1=O)NC(=O)[C@H](CC(C)(C)C)NC(=O)[C@H](CC(=O)O)NC2=O (stereo partly drawn) [I-2324, CO2Me-PL3-Asp-Npg-B5-Asp-3COOHF-Ala-Ala-Phe-Leu-PyrS2-2C1F-BztA-Ala-NH2] | 0.083 µM |
| CC(=O)N1CCC[C@]12CC=CCCCC1(CCCC=CCCCOC(=O)N3CC[C@@](C(=O)N[C@@H](Cc4ccccc4)C(=O)N[C@@H](Cc4csc5ccccc45)C(=O)N[C@@H](CCO)C(N)=O)(C3)NC(=O)[C@H](CC(N)=O)NC(=O)[C@H](Cc3ccccc3)NC(=O)[C@H](C)NC(=O)[C@H](CCCCNC(C)C)NC(=O)[C@H](CCC(N)=O)NC(=O)[C@H](CC(=O)O)NC1=O)NC(=O)[C@H](CC1CCCCC1)NC(=O)[C@H](CCO)NC2=O (stereo partly drawn) [I-1932, Ac-PL3-Hse-Cha-B5-Asp-Gln-iPrLys-Ala-Phe-Asn-PyrS2-Phe-BztA-Hse-NH2] | 0.285 µM |
| CC(=O)N1CCC[C@]12CC=CCCCC1(CCCC=CCCCOC(=O)N3CC[C@@](C(=O)N[C@@H](Cc4ccccc4)C(=O)N[C@@H](Cc4csc5ccccc45)C(=O)N[C@@H](CCO)C(N)=O)(C3)NC(=O)[C@H](CC(N)=O)NC(=O)[C@H](Cc3cccc(C(N)=O)c3)NC(=O)[C@H](C)NC(=O)[C@H](CCCCNC(C)C)NC(=O)[C@H](CCC(N)=O)NC(=O)[C@H](CC(=O)O)NC1=O)NC(=O)[C@H](CC1CCCCC1)NC(=O)[C@H](CC(N)=O)NC2=O (stereo partly drawn) [I-1925, Ac-PL3-Asn-Cha-B5-Asp-Gln-iPrLys-Ala-3cbmf-Asn-PyrS2-Phe-BztA-Hse-NH2] | 0.475 µM |
| CC(=O)N1CCC[C@H]1C(=O)N[C@@H](CC(=O)O)C(=O)N[C@@H](CC(C)(C)C)C(=O)N[C@]1(C)CCC=CCCCOC(=O)N2CC[C@@](C(=O)N[C@@H](Cc3ccsc3)C(=O)N[C@@H](Cc3csc4ccccc34)C(=O)N[C@@H](CCC(N)=O)C(N)=O)(C2)NC(=O)[C@H](CC(C)C)NC(=O)[C@H](Cc2ccccc2)NC(=O)[C@H](C)NC(=O)[C@H](C)NC(=O)[C@H](CC(=O)O)NC(=O)[C@H](CC(=O)O)NC1=O [I-1989, Ac-Pro-Asp-Npg-R4-Asp-Asp-Ala-Ala-Phe-Leu-PyrS2-3Thi-BztA-Gln-NH2] | 0.186 µM |
| CC(=O)N1CCC[C@]12CC=CCCCC1(CCCC=CCCCOC(=O)N3CC[C@@](C(=O)N[C@@H](Cc4ccccc4)C(=O)N[C@@H](Cc4csc5ccccc45)C(=O)N[C@@H](CCC(N)=O)C(N)=O)(C3)NC(=O)[C@H](Cc3ccccc3)NC(=O)[C@H](Cc3ccccc3)NC(=O)[C@H](C)NC(=O)[C@H](CCCCNC(C)C)NC(=O)[C@H]([C@@H](C)O)NC(=O)[C@H](CC(=O)O)NC1=O)NC(=O)[C@H](CC(C)(C)C)NC(=O)[C@H](CC(N)=O)NC2=O (stereo partly drawn) [I-1599, Ac-PL3-Asn-Npg-B5-Asp-Thr-iPrLys-Ala-Phe-Phe-PyrS2-Phe-BztA-Gln-NH2] | 1.07 µM |
| CC(=O)N1CCC[C@]12CC=CCCCC[C@@](C)(C(=O)N[C@@H](CC(=O)O)C(=O)N[C@@H](CC(=O)O)C(=O)N[C@@H](C)C(=O)N[C@@H](C)C(=O)N[C@@H](Cc1ccccc1)C(=O)N[C@@H](CC(C)C)C(=O)NC(C)(C)C(=O)N[C@@H](Cc1ccsc1)C(=O)N[C@@H](Cc1csc3ccccc13)C(=O)N[C@@H](CCC(N)=O)C(N)=O)NC(=O)[C@H](CC(C)(C)C)NC(=O)[C@H](CC(=O)O)NC2=O [I-1977, Ac-PL3-Asp-Npg-S6-Asp-Asp-Ala-Ala-Phe-Leu-Aib-3Thi-BztA-Gln-NH2] | 4.28 µM |

Results, then the compound that gave them:

| IC50 | Structure (SMILES) |
| --- | --- |
| 0.012 µM | CC(=O)N1CCC[C@]12CC=CCCCC1(CCCC=CCCCOC(=O)N3CC[C@@](C(=O)N[C@@H](Cc4ccsc4)C(=O)N[C@@H](Cc4csc5ccccc45)C(=O)N[C@@H](CCC(N)=O)C(N)=O)(C3)NC(=O)[C@H](CC(C)C)NC(=O)[C@H](Cc3ccccc3)NC(=O)[C@H](C)NC(=O)[C@H](C)NC(=O)[C@H](CCN(CC(=O)O)C(=O)CN3CCN(C)CC3)NC(=O)[C@H](CC(=O)O)NC1=O)NC(=O)[C@H](CC(C)(C)C)NC(=O)[C@H](CC(=O)O)NC2=O (stereo partly drawn) [I-2250, Ac-PL3-Asp-Npg-B5-Asp-[MePipAc]GAbu-Ala-Ala-Phe-Leu-PyrS2-3Thi-BztA-Gln-NH2] |
| 1.77 µM | CC(=O)N1CCC[C@]12CC=CCCCC1(CCCC=CCCCOC(=O)N3CC[C@@](C(=O)N[C@@H](Cc4ccsc4)C(=O)N[C@@H](Cc4cccc5ccccc45)C(=O)N[C@@H](CCC(N)=O)C(N)=O)(C3)NC(=O)[C@H](CC(N)=O)NC(=O)[C@H](Cc3ccccc3)NC(=O)[C@H](C)NC(=O)[C@H](C)NC(=O)[C@H]([C@@H](C)O)NC(=O)[C@H](CC(N)=O)NC1=O)NC(=O)[C@H](CC(C)(C)C)NC(=O)[C@H](CC(=O)O)NC2=O (stereo partly drawn) [I-1871, Ac-PL3-Asp-Npg-B5-Asn-Thr-Ala-Ala-Phe-Asn-PyrS2-3Thi-1NapA-Gln-NH2] |
| 0.776 µM | CC(=O)N1CCC[C@]12CC=CCCCC1(CCCC=CCCCOC(=O)N3CC[C@@](C(=O)N[C@@H](Cc4ccsc4)C(=O)N[C@@H](Cc4csc5ccccc45)C(=O)N[C@@H](CCC(N)=O)C(N)=O)(C3)NC(=O)[C@H](CC(C)C)NC(=O)[C@H](Cc3ccccc3)NC(=O)[C@H](C)NC(=O)[C@H](C)NC(=O)[C@H](CCc3ccc(O)cc3)NC(=O)[C@H](CC(=O)O)NC1=O)NC(=O)[C@H](CC(C)(C)C)NC(=O)[C@H](CC(=O)O)NC2=O (stereo partly drawn) [I-1787, Ac-PL3-Asp-Npg-B5-Asp-hTyr-Ala-Ala-Phe-Leu-PyrS2-3Thi-BztA-Gln-NH2] |
| 1.48 µM | CC(=O)N1CCC[C@]12CC=CCCCC1(CCCC=CCCCOC(=O)N3CC[C@@](C(=O)N[C@@H](Cc4ccsc4)C(=O)N[C@@H](Cc4ccc5ccccc5c4)C(=O)N[C@@H](CCC(N)=O)C(N)=O)(C3)NC(=O)[C@H](CC(N)=O)NC(=O)[C@H](Cc3ccccc3)NC(=O)[C@H](C)NC(=O)[C@H](C)NC(=O)[C@H]([C@@H](C)O)NC(=O)[C@H](CC(N)=O)NC1=O)NC(=O)[C@H](CC(C)(C)C)NC(=O)[C@H](CC(=O)O)NC2=O (stereo partly drawn) [I-1873, Ac-PL3-Asp-Npg-B5-Asn-Thr-Ala-Ala-Phe-Asn-PyrS2-3Thi-2NapA-Gln-NH2] |
| 0.182 µM | CC(=O)N1CCC[C@]12CC=CCCCC1(CCCC=CCOC(=O)N3CC[C@@](C(=O)N[C@@H](Cc4ccsc4)C(=O)N[C@@H](Cc4csc5ccccc45)C(=O)N[C@@H](CCC(N)=O)C(N)=O)(C3)NC(=O)[C@H](CC(N)=O)NC(=O)[C@H](Cc3ccccc3)NC(=O)[C@H](C)NC(=O)[C@H](C)NC(=O)[C@H](CC(=O)O)NC(=O)[C@H](CC(=O)O)NC1=O)NC(=O)[C@H](CC(C)(C)C)NC(=O)[C@H](CC(=O)O)NC2=O (stereo partly drawn) [I-1817, Ac-PL3-Asp-Npg-B5-Asp-Asp-Ala-Ala-Phe-Asn-PyrS-3Thi-BztA-Gln-NH2] |
| 0.033 µM | CC(=O)N1CCC[C@]12CC=CCCCC1(CCCC=CCCCOC(=O)N3CC[C@@](C(=O)N[C@@H](Cc4ccsc4)C(=O)N[C@@H](Cc4ccc(F)c(F)c4)C(=O)N[C@@H](CCC(N)=O)C(N)=O)(C3)NC(=O)[C@H](CC(C)C)NC(=O)[C@H](Cc3ccccc3)NC(=O)[C@H](C)NC(=O)[C@H](C)NC(=O)[C@H](CC(=O)O)NC(=O)[C@H](CC(=O)O)NC1=O)NC(=O)[C@H](CC(C)(C)C)NC(=O)[C@H](CC(=O)O)NC2=O (stereo partly drawn) [I-1427, Ac-PL3-Asp-Npg-B5-Asp-Asp-Ala-Ala-Phe-Leu-PyrS2-3Thi-34FF-Gln-NH2] |
